Results from patent publication US20240277890A1, “ANTIMICROBIAL ARTICLES COMPRISING POLYURETHANE” (Amicoat AS, priority 2021, published 2024).
Converted amounts (≈) assume the structure as drawn.

Experiments:
[1] = system: Salmonella sp - antibiotic-susceptible clinical isolate; assay: MIC microbroth dilution (CLSI); type: cell-based
[2] = system: Shigella sp - antibiotic-susceptible clinical isolate; assay: MIC microbroth dilution (CLSI); type: cell-based
[3] = system: Propionibacterium acnes- antibiotic-susceptible clinical isolate; assay: MIC microbroth dilution (CLSI); type: cell-based; conditions: P. acnes antibiotic-susceptible
Procedure: Supplemented Brucella broth (SBB) was used for the anaerobic strains with an inoculum of approximately 10^6 CFU/mL. SBB is a broth consisting of 1% peptone, 0.5% ‘Lab-lemco’, 1% glucose and 0.5% sodium chloride supplemented with 5 μg/L haemin and 1 μg/L vitamin K (both obtained from Sigma Aldrich Ltd.) Yeast and filamentous fungal MIC were performed in MOPS buffered RPMI 1640 medium (MOPS buffer obtained from Sigma Aldrich Ltd., RPMI 1640 obtained from Invitrogen Ltd, Paisley, Scotland). The yeast inocula were in the range 7.5×10^2-4×10^3 CFU/mL and the filamentous fungi approximately 8×10^3-1×10^5 CFU/mL.
MICs were determined as described in Example 2.

[4] = system: Candida albicans ATCC90028 - reference strain
[5] = system: Trichophyton mentagrophytes - G.R. Micro collection
[6] = system: Trichophyton interdigitale - G.R. Micro collection
[7] = system: Microsporum canis - G.R. Micro collection
[8] = system: Cryptococcus neoformans - G.R. Micro collection
[9] = system: Escherichia coli ATCC25922 - antibiotic-susceptible type strain; conditions: ATCC25922
[10] = system: Escherichia coli ATCC32518 - β-lactamase positive type strain
[11] = system: Escherichia coli - multi-drug resistant clinical isolate
[12] = system: Klebsiella aerogenes NCTC11228 - antibiotic-susceptible type strain
[13] = system: Enterobacter sp - multi-drug resistant clinical isolate
[14] = system: Pseudomonas aeruginosa ATCC27853 - antibiotic-susceptible type strain; conditions: ATCC27853
[15] = system: Morganella morganii - multi-drug resistant clinical isolate
[16] = system: Staphylococcus aureus ATCC 29213 - antibiotic-susceptible control strain; conditions: ATCC 29213
[17] = system: Staphylococcus aureus - methicillin-resistant clinical isolate
[18] = system: Staphylococcus aureus - teicoplanin-intermediate clinical isolate
[19] = system: Staphylococcus epidermidis antibiotic susceptible clinical isolate
[20] = system: Staphylococcus epidermidis methicillin-resistant clinical isolate
[21] = system: Staphylococcus haemolyticus - antibiotic susceptible clinical isolate
[22] = system: Enterococcus faecalis vancomycin-resistant (VanB) clinical isolate
[23] = system: Enterococcus faecium vancomycin-susceptible clinical isolate
[24] = system: Enterococcus gallinarum vancomycin-resistant (VanC) clinical isolate
[25] = system: Streptococcus pneumoniae - penicillin-susceptible clinical isolate
[26] = system: Streptococcus pyogenes - Macrolide (MLS) resistant clinical isolate
[27] = system: MU50 Staphylococcus aureus (MRSA) - VISA type strain
[28] = system: EMRSA3 Staphylococcus aureus (MRSA) - SSCmec type 1; conditions: EMRSA3 - SSCmec type 1
[29] = system: HT2001254 Staphylococcus aureus (MRSA) - PVL positive; conditions: HT2001254 S. aureus (MRSA) PVL positive
[30] = system: Streptococcus agalactiae - macrolide-resistant clinical isolate
[31] = system: Group G Streptococcus - antibiotic-susceptible clinical isolate
[32] = system: Group G Streptococcus - macrolide-resistant clinical isolate
[33] = system: Streptococcus bovis - antibiotic-susceptible clinical isolate
[34] = system: Streptococcus bovis - macrolide-resistant clinical isolate
[35] = system: Methicillin resistant Staphylococcus aureus (MRSA) strain ATCC 33591; conditions: ATCC 33591
[36] = system: Methicillin resistant Staphylococcus epidermidis (MRSE) strain ATCC 27626; conditions: ATCC 27626
[37] = system: S. pyogenes
[38] = system: E. coli

CCCCCCNC(=O)[C@H](CCCNC(=N)N)NC(=O)[C@H](Cc1c(C(C)(C)C)[nH]c2c(C(C)(C)C)cc(C(C)(C)C)cc12)NC(=O)[C@@H](N)CCCNC(=N)N [Compound 8]
MIC [1]: 8 mg/L (≈ 10.4 µM) | MIC [2]: 4 mg/L (≈ 5.21 µM) | MIC [3]: 4 mg/L (≈ 5.21 µM) | MIC [4]: 4 mg/L (≈ 5.21 µM) | MIC [5]: 4 mg/L (≈ 5.21 µM) | MIC [6]: 4 mg/L (≈ 5.21 µM) | MIC [7]: 4 mg/L (≈ 5.21 µM) | MIC [8]: 2 mg/L (≈ 2.6 µM) | MIC [9]: 4 mg/L (≈ 5.21 µM) | MIC [10]: 8 mg/L (≈ 10.4 µM) | MIC [11]: 8 mg/L (≈ 10.4 µM) | MIC [12]: 8 mg/L (≈ 10.4 µM) | MIC [13]: 8 mg/L (≈ 10.4 µM) | MIC [14]: 8 mg/L (≈ 10.4 µM) | MIC [15]: 8 mg/L (≈ 10.4 µM) | MIC [16]: 4 mg/L (≈ 5.21 µM) | MIC [17]: 4 mg/L (≈ 5.21 µM) | MIC [18]: 4 mg/L (≈ 5.21 µM) | MIC [19]: 8 mg/L (≈ 10.4 µM) | MIC [20]: 2 mg/L (≈ 2.6 µM) | MIC [21]: 4 mg/L (≈ 5.21 µM) | MIC [22]: 8 mg/L (≈ 10.4 µM) | MIC [23]: 4 mg/L (≈ 5.21 µM) | MIC [24]: 4 mg/L (≈ 5.21 µM) | MIC [25]: 8 mg/L (≈ 10.4 µM) | MIC [26]: 8 mg/L (≈ 10.4 µM) | MIC [27]: 4 mg/L (≈ 5.21 µM) | MIC [28]: 4 mg/L (≈ 5.21 µM) | MIC [29]: 4 mg/L (≈ 5.21 µM) | MIC [30]: 8 mg/L (≈ 10.4 µM) | MIC [31]: 8 mg/L (≈ 10.4 µM) | MIC [32]: 8 mg/L (≈ 10.4 µM) | MIC [33]: 8 mg/L (≈ 10.4 µM) | MIC [34]: 2 mg/L (≈ 2.6 µM) | MRSA (MIC) [35]: 2 mg/L | MRSE (MIC) [36]: <1 mg/L | S. pyogenes (MIC) [37]: 2 mg/L | E. coli (MIC) [38]: 5 mg/L
